Data reported in patent US20100068208A1, “Degranulation inhibitor” (priority 2005, published 2010).
Read-outs that look alike come from different tables or passages of the source.

How the values were obtained:
[1] = system: TGR12; assay type: cell-based, human; conditions: for EC50: CHO-TGR12, read-out: EC50 in the calcium increasing effect on CHO-TGR12
Method: CHO/dhfr^− cells (hereinafter CHO) were incubated in α-MEM (Invitrogen) supplemented with 10% fetal calf serum. After a termination codon in the TGR12-encoding nucleotide sequence was removed, a nucleotide sequence ligated with the nucleotide sequence encoding GFP (Wako Pure Chemical) [hereinafter briefly referred to as TGR12-GFP (DNA having the nucleotide sequence represented by SEQ ID NO: 31)] was incorporated into vector plasmid pAKKO-111H (the same vector plasmid as pAKKO1.11H described in Biochim. Biophys. Acta, 1219, 251-259 (1994)) for animal cell expression, and the vector plasmid was stably expressed to establish TGR12-GFP-expressed CHO cell line (hereinafter CHO-TGR12). CHO-TGR12 was incubated in nucleic acid-free α-MEM medium (Invitrogen) containing 10% dialyzed fetal calf serum.
CHO-TGR12 was plated in a 96-well plate at a density of 30,000 cells/well. After incubation overnight, the medium was discarded and 100 μL/well of assay buffer [Hank's Balanced Salt Solution (Invitrogen), 20 mM HEPES (Dojin Chemical Laboratory) and 2.5 mM Probenecid (Sigma)] containing 4 μM Fluo3-AM (Dojin Chemical Laboratory) was added, which was then allowed to stand for an hour at 37° C. […] After the cells were washed with assay buffer, fluorescence reflecting changes in intracellular calcium levels was assayed on FLIPR (Molecular Device). Ten seconds after initiation of the assay, 50 μL of a sample was added at a rate of 50 μL/second. Fluorescence measurement was taken every 1 second during the first 60 seconds and then every 6 seconds during the next 120 seconds; the highest fluorescence intensity over a 3 minute period was taken as the maximum activity under the stimulation condition, representing the mean value of 3 wells. The EC50 values were determined using Graphpad PRISM 4 (Graphpad Software).

[2] = system: human mast cell line LAD 2; experiment: TGR12 ligand-dependent degranulation of LAD 2 (β-hexosaminidase release); assay type: cell-based
Method: Human mast cell line LAD 2 was incubated in StemPro-34 medium (Invitrogen) supplemented with 100 ng/mL of stem cell factor (Immuno-Biological Laboratories Co., Ltd.). […] Subsequently, Tyrode's buffer containing 50 μL of TGR12 ligand (Peptide Institute, Inc.) in various concentrations was added and incubation was continued at 37° C. for further 20 minutes to induce degranulation. The degree of degranulation was determined by assaying the β-hexosaminidase activity in the degranulation assay supernatant as given below. The supernatant was dispensed into a 96-well plate and 0.1M citrate (pH 4.5)/1 mM 4-methyl umbelliferyl-2-acetamido-2-deoxy-beta-D-glucopyranoside (Wako Pure Chemical) in 5-fold of the supernatant was added thereto, followed by incubation at 37° C. for an hour. […] The activity was then assayed using Fusion-α (Perkin-Elmer). The β-hexosaminidase activity was also shown by the activity in the supernatant obtained by centrifugation after freezing and thawing LAD 2 four times, which was made total β-hexosaminidase activity in LAD 2, and the degree of degranulation was shown as the percentage of the β-hexosaminidase activity in the LAD 2 supernatant based on the total β-hexosaminidase activity.

[3] = system: RBL-2H3; experiment: Intracellular calcium increasing activity in RBL2H3 (FLIPR); assay type: cell-based; design: unit not given here
Method: (§1) RBL-2H3 (hereinafter RBL2H3) was incubated in α-MEM (Invitrogen) supplemented with 10% fetal calf serum. Vector plasmid pcDNA3.1 for animal cell expression, in which the nucleotide sequence containing the initiation codon to the termination codon of human TGR12 (DNA having the nucleotide sequence represented by SEQ ID NO: 32) was incorporated, was stably expressed in RBL-2H3 to establish human TGR12-expressed RBL-2H3 cell line (hereinafter RBL2H3-TGR12). RBL2H3-TGR12 was incubated in α-MEM (Invitrogen) supplemented with 10% fetal calf serum and 200 μg/mL of Geneticin.
(§2) The intracellular calcium increasing activity was assayed as follows. RBL2H3 and RBL2H3-TGR12 were plated in a 96-well plate at a density of 40,000 cells/well and incubated overnight. The medium was then discarded and 100 μL/well of 4 μM Fluo3-AM (Dojin Kagaku)-containing assay buffer [Hank's Balanced Salt Solution (Invitrogen), 20 mM HEPES (Dojin Kagaku) and 2.5 mM Probenecid (Sigma)] was added. The mixture was allowed to stand for an hour at 37° C. Various TGR12 (Peptide Institute, Inc.) or calcium ionophore A23187 (Wako Pure Chemical) was diluted in 0.05% CHAPS-containing assay buffer. After the cells were washed with the assay buffer, fluorescence emitted with changes in intracellular calcium was measured using FLIPR (Molecular Device). A sample, 50 μL, was added at a rate of 50 μL/sec. 10 seconds after initiation of the assay. Fluorescence was measured every 1 second during the first 60 seconds and every 6 seconds during the next 120 seconds. The highest fluorescence intensity during 3 minutes was made the maximum activity under the stimulation conditions, which was taken as an average of 3 wells. The EC50 values were calculated using Graphpad PRISM 4 (Graphpad Software).

[4] = target: T1, human TGR12 (Homo sapiens, UniProt Q96LB1); experiment: Intracellular calcium increasing activity in RBL2H3-TGR12 (FLIPR); assay type: cell-based
T1 construct: expressed in transfected cells
T1 sequence (Q96LB1 1-330): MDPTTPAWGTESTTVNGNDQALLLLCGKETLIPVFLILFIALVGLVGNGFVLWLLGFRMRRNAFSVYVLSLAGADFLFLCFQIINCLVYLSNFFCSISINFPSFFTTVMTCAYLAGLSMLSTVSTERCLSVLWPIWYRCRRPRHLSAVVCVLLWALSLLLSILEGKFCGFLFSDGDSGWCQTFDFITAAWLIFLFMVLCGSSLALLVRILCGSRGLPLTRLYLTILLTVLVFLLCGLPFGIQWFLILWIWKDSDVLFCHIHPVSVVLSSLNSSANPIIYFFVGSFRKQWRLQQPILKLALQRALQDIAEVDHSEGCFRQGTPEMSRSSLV
Method: as §1, §2

[5] = CHO-TGR12, 0.3 nM, highest fluorescence intensity over 3 minutes

Row | Structure (SMILES) | maximum activity in the calcium increasing effect [1, 5] | maximum activity in the calcium increasing effect ([1]; CHO-TGR12, 3 nM) | maximum activity in the calcium increasing effect ([1]; CHO-TGR12, 30 nM) | maximum activity in the calcium increasing effect ([1]; CHO-TGR12, 300 nM) | maximum activity in the calcium increasing effect ([1]; CHO-TGR12, 3000 nM) | EC50 [1] [nM] | stimulated degranulation (β-hexosaminidase in supernatant, % of total) ([2]; LAD 2, 10 nM) [%] | stimulated degranulation (β-hexosaminidase in supernatant, % of total) ([2]; LAD 2, 30 nM) [%] | stimulated degranulation (β-hexosaminidase in supernatant, % of total) ([2]; LAD 2, 100 nM) [%] | stimulated degranulation (β-hexosaminidase in supernatant, % of total) ([2]; LAD 2, 300 nM) [%] | stimulated degranulation (β-hexosaminidase in supernatant, % of total) ([2]; LAD 2, 1 μM) [%] | maximum activity in the calcium increasing effect ([3]; RBL2H3, 1 nM) | maximum activity in the calcium increasing effect ([3]; RBL2H3, 10 nM) | maximum activity in the calcium increasing effect ([3]; RBL2H3, 100 nM) | maximum activity in the calcium increasing effect ([3]; RBL2H3, 1 μM) | maximum activity in the calcium increasing effect ([3]; RBL2H3, 10 μM) | maximum activity in the calcium increasing effect ([4]; RBL2H3-TGR12, 1 nM) | maximum activity in the calcium increasing effect ([4]; RBL2H3-TGR12, 10 nM) | maximum activity in the calcium increasing effect ([4]; RBL2H3-TGR12, 100 nM) | maximum activity in the calcium increasing effect ([4]; RBL2H3-TGR12, 1 μM) | also measured
1 | CC[C@H](C)[C@H](NC(=O)CNC(=O)[C@H](CC(=O)O)NC(=O)[C@H](CO)NC(=O)[C@@H](N)Cc1c[nH]cn1)C(=O)N[C@@H](Cc1ccccc1)C(=O)N[C@H](C(=O)N[C@@H](CC(=O)O)C(=O)N[C@@H](CO)C(=O)N[C@@H](Cc1ccc(O)cc1)C(=O)N[C@@H](CO)C(=O)N[C@@H](CCCNC(=N)N)C(=O)N[C@@H](Cc1ccc(O)cc1)C(=O)N[C@@H](CCCNC(=N)N)C(=O)N[C@@H](CCCCN)C(=O)N[C@@H](CCC(N)=O)C(=O)N[C@@H](CCSC)C(=O)N[C@@H](C)C(=O)N[C@H](C(=O)N[C@@H](CCCCN)C(=O)N[C@@H](CCCCN)C(=O)N[C@@H](Cc1ccc(O)cc1)C(=O)N[C@@H](CC(C)C)C(=O)N[C@@H](C)C(=O)N[C@@H](C)C(=O)N[C@H](C(=O)N[C@@H](CC(C)C)C(N)=O)C(C)C)C(C)C)[C@@H](C)O [PACAP-27] | 48 | 58 | 939 | 23030 | 23728 | ~93 | 2.6 | 19.6 | 59.4 | 71.1 | 75.1 | 47 | 37 | 63 | 59 | 45 | 40 | 29 | 5300 | 11494 | stimulated degranulation (β-hexosaminidase in supernatant, % of total) ([2]; LAD 2, 3 μM): 69.1%; EC50 ([2]; LAD 2, read-out: EC50 in the degranulation on LAD 2): ~51 nM; maximum activity in the calcium increasing effect ([4]; RBL2H3-TGR12, 10 μM): 12667
2 | CC(C)C[C@H](NC(=O)[C@H](C)NC(=O)[C@H](Cc1c[nH]c2ccccc12)NC(=O)[C@H](CCCCN)NC(=O)[C@H](CC(N)=O)NC(=O)[C@H](Cc1c[nH]c2ccccc12)NC(=O)[C@H](CCCCN)NC(=O)[C@H](CCCCN)NC(=O)[C@H](CCCNC(=N)N)NC(=O)[C@@H](N)Cc1ccccc1)C(=O)N[C@@H](CO)C(=O)N[C@@H](CCCNC(=N)N)C(N)=O [PAMP-12, proadrenomedullin N-terminal 20 peptide (9-20)] | 255 | 1617 | 22291 | 24088 | 23743 | ~98 | 30.7 | 52.1 | 65.2 | 67.7 | 69.3 | 52 | 52 | 35 | 44 | 43 | 41 | 2088 | 11110 | 12039 | EC50 [2]: ~13 nM; stimulated degranulation (β-hexosaminidase in supernatant, % of total) ([2]; LAD 2, 3 nM): 6.3%; maximum activity in the calcium increasing effect ([4]; RBL2H3-TGR12, 10 μM): 12331
